In ChEMBL document CHEMBL1127208, “Centaureidin, a cytotoxic flavone from Polymnia fruticosa, inhibits tubulin polymerization” (Bioorg Med Chem Lett, 1993):

Assays:
Tubulin alpha chain = Tubulin alpha chain (Sus scrofa, UniProt P02550); experiment: Tested for 50 % inhibition of tubulin polymerization by turbidimetric assay
[1] = Tested for the cytotoxicity concentration in CA46 burkitt lymphoma cells; assay type: functional, cell-based; conditions: Homo sapiens
[2] = molecular target: Tubulin alpha chain (Sus scrofa) (UniProt P02550); experiment: Tested for the inhibition using the binding of 5 uM [3H]colchicine to purified tubulin at 37 degree Centigrade
Chain of Tubulin alpha chain (Sus scrofa) (P02550 whole entry, looked up): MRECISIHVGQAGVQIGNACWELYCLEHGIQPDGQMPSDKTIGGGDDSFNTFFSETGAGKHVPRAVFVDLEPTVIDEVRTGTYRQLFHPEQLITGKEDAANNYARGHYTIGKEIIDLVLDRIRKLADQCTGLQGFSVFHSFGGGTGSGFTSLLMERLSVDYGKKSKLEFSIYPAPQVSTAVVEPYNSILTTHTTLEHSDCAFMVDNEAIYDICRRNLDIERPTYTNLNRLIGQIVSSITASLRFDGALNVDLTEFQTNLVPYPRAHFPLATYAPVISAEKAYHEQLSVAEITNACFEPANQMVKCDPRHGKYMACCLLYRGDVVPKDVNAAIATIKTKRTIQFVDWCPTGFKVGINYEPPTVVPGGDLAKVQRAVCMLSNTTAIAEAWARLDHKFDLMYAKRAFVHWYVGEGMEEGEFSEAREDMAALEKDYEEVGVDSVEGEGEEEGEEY

Chain of Tubulin alpha chain (P02550 whole entry, looked up): as above

Row | SMILES | IC50 (Tubulin alpha chain) | IC50 [1] | inhibition [2]
1 | COc1ccc(-c2oc3cc(O)c(OC)c(O)c3c(=O)c2OC)cc1O [CENTAUREIDIN] | 3 µM | 0.2 µM | 
2 | COc1cc([C@@H]2c3cc4c(cc3[C@H](O)[C@H]3COC(=O)[C@H]23)OCO4)cc(OC)c1OC |  |  | 84%
